Laboratory results reported in PubChem BioAssay AID2305 (GlaxoSmithKline (GSK), 2010).

System: P. falciparum 3D7 growth, pLDH absorbance
Assay: blood-stage malaria parasite growth potency – strain 3D7, dose response (AID 2305)

SMILES	IC50 [nM]
c1ccc2c(c1)cc(CNCCCN1CCN(CCCNCc3cc4ccccc4c4ccccc34)CC1)c1ccccc12	200
Cc1cccc(-c2ccc(NC(=O)C3CCN(Cc4cccc(O)c4)CC3)cc2)c1	980
CCOC(=O)CCc1cc(F)c(F)c(OC[C@H](O)CNC(C)(C)C(O)c2ccc3ccccc3c2)c1 (some centres not stated)	860
COc1ccc(N2CCN(CCCCNC(=O)c3ccc(NC(=O)c4cc(Cl)cc(Cl)c4)cc3)CC2)c(OC)c1	300
CCCN(CCC)CCCNc1ccc(C(=O)Nc2ccc(OCC)cc2)cc1[N+](=O)[O-]	990
NCC1CCCN1Cc1ccc(-c2ccc(-c3nc4ccc(F)cc4[nH]3)cc2)cc1 (configuration not stated)	930
Cc1ccc(O)cc1Nc1c(C(N)=O)cnc2ccc(-c3cncs3)cc12	670
CCN1CCN(CCCNc2c3ccc(Cl)cc3nc3ccc(O)cc23)CC1	570
COc1ccc(S(=O)(=O)N2CCC3(CC2)OCC(=O)NC3c2ccc(Cl)c(Cl)c2)cc1 (configuration not stated)	640
Cn1cnc(CCNC(=O)c2ccc(-c3cccc(-c4nc5ccccc5[nH]4)c3)cc2)c1	1100
CN1CCN(c2ccc(Cl)cc2NC(=O)C2COc3ccccc3O2)CC1 (configuration not stated)	810
CCCCCCN1CCC(NCc2ccc(C(F)(F)F)cc2)CC1	370
CCc1cn2c3c(cc(C(=O)N[C@@H](Cc4ccccc4)[C@H](O)CNC(C)(C)CCCC(C)C)cc13)N(C)S(=O)(=O)C2	240
O=C(Nc1ccc(CN2CCCCC2)cc1)c1ccc(COc2ccc([N+](=O)[O-])cc2)o1	1000
Cc1cnn(-c2cccc(C(=O)NC3CCC(CCN4CCc5ccc(C#N)cc5CC4)CC3)c2)c1 (configuration not stated)	930
CCC[C@@H]([C@@H](CC1CCCCC1)C(=O)N[C@H](C(=O)Nc1nccs1)C(C)(C)SC)N(O)C=O	150
COc1ccc(CN(C2CC2)C(C)C(=O)c2[nH]c(C)c(C(C)=O)c2C)cc1 (configuration not stated)	1590
N#CN1CC[C@@H](NS(=O)(=O)Cc2ccc(Cl)c(Cl)c2)C1	530
CNS(=O)(=O)c1ccc2c(c1)nc(C1CCN(CC3CCC(NC(=O)/C=C/c4ccc(Cl)c(Cl)c4)CC3)CC1)n2C (configuration not stated)	670

SMILES	IC50 [nM]
CCn1c(-c2nonc2N)nc2c(-c3cccc(NC(=O)Nc4ccc(C(F)(F)F)cc4)c3)ncc(OCCCN)c21	1050
CC(C)COc1ccc(Cl)cc1Cc1ccc(-c2nc3c(F)c(F)ccc3[nH]2)o1	940
CC(C)c1cc(C(=O)N[C@@H](Cc2ccccc2)[C@H](O)CNC2CCCCC2)cc(N2CCCC2=O)c1	120
CCc1ccc(C2CCN(CCCCNC(=O)c3ccc(-c4ccc(C(F)(F)F)cc4)cc3)CC2)c(OCCO)c1	410
NC(N)=Nc1cccc(NC(=O)Nc2cccc(N=C(N)N)c2)c1	260
Cc1c(C(=O)N2CCCC(C(F)(F)F)C2)sc2cccc(F)c12 (configuration not stated)	600
c1ccc(C(OCCC2CCN(Cc3cccnc3)CC2)c2ccccc2)cc1	820
O=C(Cc1cccc(OCCCN(Cc2cccc(C(F)(F)F)c2Cl)CC(c2ccccc2)c2ccccc2)c1)NCc1ccco1	940
CCC(=O)N(c1ccccc1)C1CCN(CCCC(NC(=O)c2cc(C(F)(F)F)cc(C(F)(F)F)c2)c2ccc(Cl)c(Cl)c2)CC1 (configuration not stated)	800
CC(C)(CNC(=O)[C@@H]1CCCCN1)c1nc(-c2ccc(Cl)c(O)c2)c(-c2ccncc2)[nH]1	840
Cn1c(O)c(N=NC(=S)N2CCOCC2)c2ccccc21	900
NC(=O)C1CCN(Cc2ccc(-c3ccc(-c4nc5ccc(C(F)(F)F)cc5[nH]4)cc3)cc2)CC1	680
Cc1ccc(S(=O)(=O)n2cc(-c3ccnc(N)c3)c3cc(Br)cnc32)cc1	900
CCCOc1cccc(C(=O)N[C@@H](Cc2ccccc2)[C@H](O)CNCc2ccccc2OC)c1	880
Brc1ccccc1CNc1ccnc(NCCn2ccnc2)n1	900
Clc1ccc(-c2nc3ccc(-c4ccc5nc(-c6ccc(Cl)cc6)[nH]c5c4)cc3[nH]2)cc1	240
CCOC(=O)c1cnc2cc(N3CCCC3)c(Cl)cc2c1OCC	110
CC(C)(C(=O)Nc1ccc(C2CCC(NCC3CC3)CC2)c(Cl)c1)c1ccc(C(F)(F)F)cc1 (configuration not stated)	960
